The experiment has as its target STAT3 (Homo sapiens, UniProt P40763). Kind of experiment: fluorescence polarization competition with 5-FAM-GpYLPQTV phosphopeptide. In kind it is binding.

STAT3, sequence (P40763 2-770): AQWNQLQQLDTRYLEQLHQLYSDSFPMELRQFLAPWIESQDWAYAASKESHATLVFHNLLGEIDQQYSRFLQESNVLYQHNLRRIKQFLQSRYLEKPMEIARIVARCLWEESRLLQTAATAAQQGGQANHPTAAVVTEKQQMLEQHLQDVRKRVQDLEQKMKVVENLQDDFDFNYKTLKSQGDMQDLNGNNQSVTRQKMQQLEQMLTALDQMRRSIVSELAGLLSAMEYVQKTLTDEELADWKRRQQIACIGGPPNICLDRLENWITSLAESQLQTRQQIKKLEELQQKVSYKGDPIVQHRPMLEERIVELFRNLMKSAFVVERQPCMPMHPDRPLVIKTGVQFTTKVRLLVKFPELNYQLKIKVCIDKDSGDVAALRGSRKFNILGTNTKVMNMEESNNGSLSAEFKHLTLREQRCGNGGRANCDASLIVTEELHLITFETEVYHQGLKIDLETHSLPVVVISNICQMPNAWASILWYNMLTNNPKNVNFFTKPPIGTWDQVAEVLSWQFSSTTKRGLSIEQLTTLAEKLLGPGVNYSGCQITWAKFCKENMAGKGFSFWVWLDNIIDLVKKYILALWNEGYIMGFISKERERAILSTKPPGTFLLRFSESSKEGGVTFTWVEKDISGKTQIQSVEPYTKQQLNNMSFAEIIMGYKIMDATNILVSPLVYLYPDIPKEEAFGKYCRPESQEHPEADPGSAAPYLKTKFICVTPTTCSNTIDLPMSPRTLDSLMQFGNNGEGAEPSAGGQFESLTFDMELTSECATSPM

In general, IC50 refers to the concentration that inhibits the measured activity by half. As to S3I-1757, the IC50 came to 13.5 ± 0.5 µM.

Source of the values: paper PMC4030628 (Cancer research, 2013).
